Assay results taken from patent publication US10202604B2, “Methods of using microRNA-141” (Stemirna Therapeutics Co., Ltd., priority 2016, dated 2019).

How the values were obtained:
Du145 cells = assay: Boyden chamber Matrigel invasion assay; format: cell-based, human; settings: 1, 2, and 5 μM for 96 h
Experimental: FIGS. 3A-3J show partial suppression of epithelial to mesenchymal transition by miR-141 and CD44 as a direct target of miR-141. FIGS. 3A-3B show qPCR analysis of epithelial to mesenchymal transition markers in bulk (FIG. 3A) or CD44^+ (FIG. 3B) Du145 cells transfected with the miR-141 oligos (30 nM; 48 h). Results were presented as the relative expression levels over the cells transfected with the NC oligos. […] GAPDH was used as control and the relative protein levels after normalizing to GAPDH and NC controls were indicated below each lane. […] Shown below is the actual sequence in the region with the mutated miR-141 binding sequence indicated in grey (below). […] Shown are representative images. […]
Du145 cells transfected with NC or miR-141 oligos at the two doses and time intervals indicated were used in Western blotting. Indicated below are relative expression levels (normalized to respective GAPDH and compared to NC) of each protein determined by densitometric scanning of the individual bands. […]
FIG. 6A: Putative binding site of miR-141 in EZH2 3′-UTR. […] Relative protein levels were measured by densitometry and normalized to GAPDH levels (indicated below). […]
For Boyden Chamber invasion assays, Biocoat Matrigel Invasion Chamber (BD, Franklin Lakes, N.J.) was employed following the manufacturer's instructions. […] Representative images were taken for each membrane and cells were counted. […]

EZH2 = EZH2 mRNA and protein levels; format: cell-based, human; settings: Du145 cells; 1, 2, and 5 μM for 96 h
Experimental: FIG. 6A: Putative binding site of miR-141 in EZH2 3′-UTR. […] FIG. 6C is a qPCR analysis of EZH2 mRNA levels in CD44^+ PCa cells. Bars, mean±SD. *P<0.05; **P<0.01. […] Bars, mean±SD. **P<0.01. […] Western blotting was performed in PC3 and Du145 cells transfected with NC (60 nM) or miR-141 (30 or 60 nM) oligos (72 h). Relative protein levels were measured by densitometry and normalized to GAPDH levels (indicated below). […] Du145 cells plated one day before were treated with 1, 2, and 5 μM of DZNep for 96 h and then cells were harvested for invasion assays. **P<0.01. Inset, WB showing reduced EZH2 proteins by DZNep. […] Du145 cells were transfected with 10 nM scramble siRNA (siCon) or EZH2-targeting siRNAs (siEZH2) or siEZH2 plus anti-miR-141 (30 nM). 48 h later, cells were harvested for invasion assays. Bars, mean±SD. **P<0.01. […] Du145 cells were co-transfected with 30 nM NC or miR-141 oligos together with empty vector or pCMV-EZH2 construct. After 48 h, cells were harvested for invasion assay. Bars, mean±SD. **P<0.01.
Total RNA was extracted using microRNA isolation kit (Life Technologies) according to the manufacturer's instructions. microRNA qPCRs were performed using TaqMan microRNA assays (Life Technologies). qPCR data for microRNAs were normalized to RNU48 whereas qPCR data for mRNAs were normalized to GAPDH.
For Boyden Chamber invasion assays, Biocoat Matrigel Invasion Chamber (BD, Franklin Lakes, N.J.) was employed following the manufacturer's instructions. Briefly, 100,000-200,000 of prostate cancer cells after transfection with […]/miR-141 oligos or infection with miR-141 over-expressing lentivirus were seeded into each well. Medium with 20% fetal bovine serum was used in the lower chamber as chemo-attractant. After 20 h, cells were fixed and stained using HEMA stain. Representative images were taken for each membrane and cells were counted. Migration assays were simultaneously performed in control wells using identical protocol with Transwell (Costar; 8 μl PET) without Matrigel. […]

For Cl.Nc1nccc2c1ncn2[C@@H]1C=C(CO)[C@@H](O)[C@H]1O [DZNep, 3-Deazaneplanocin A hydrochloride, reference compound], the Du145 cell invasion (Du145 cells) was “blocked” and the EZH2 protein (EZH2) was “reduced”.
